Reference: patent publication US9605005B2, “Alkynyl alcohols and methods of use” (Genentech, Inc., priority 2013, dated 2017)

How the values were obtained:
[1] = target: nuclear factor-kappa B (NF-kB)-inducing kinase (NIK) (Homo sapiens (Human), UniProt Q99558); experiment: NIK enzyme inhibition assay (Transcreener ADP, NIK ADP-FP); assay type: biochemical; conditions: purified NIK 0.5 nM, 10 μM ATP, fluorescence polarization; read-out: NIK ADP-FP (Ki μM)
[2] = tested on: p52 (NF-kB2) nuclear translocation, HeLa cells; experiment: p52 (NF-kB2) nuclear translocation assay in HeLa cells (non-classical NF-kB signaling, anti-lymphotoxin beta receptor antibody stimulated); assay type: cell-based; conditions: Homo sapiens, 100 ng/mL anti-lymphotoxin beta receptor antibody for 5 hours, read-out: p52 HeLa Transloc Assay (IC50)
Method in brief: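 HeLa cells in 10% FBS medium were treated with compound (0.2% DMSO final) and stimulated with 100 ng/mL anti-lymphotoxin beta receptor antibody for 5 h. Fixed cells were immunostained for p52 and imaged with DRAQ5 nuclear stain. Translocation is the nuclear to cytoplasmic intensity ratio, and IC50 values are in micromolar.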

[3] = tested on: REL-A (p65) nuclear translocation, HeLa cells; experiment: REL-A (p65) nuclear translocation assay in HeLa cells (classical NF-kB signaling, TNF-α stimulated); assay type: cell-based; conditions: Homo sapiens, 0.5 h; HeLa cells, 10 ng/mL TNF-α for 30 minutes; read-out: REL-A HeLa Transloc Assay (IC50)
Method in brief: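 HeLa cells were exposed to test compounds at various concentrations (0.2% DMSO final) in medium with 10% fetal bovine serum for 4.5 hours, then stimulated for 30 minutes with 10 ng/mL TNF-α. After fixation in 4% paraformaldehyde, 0.1% Triton X-100 permeabilization and staining with 400 ng/mL anti-REL-A (p65) antibody, Alexa488 secondary and DRAQ5, Opera imaging gave nuclear-to-cytoplasmic signal ratios to calculate IC50.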

Sequence of nuclear factor-kappa B (NF-kB)-inducing kinase (NIK) (Q99558 whole entry): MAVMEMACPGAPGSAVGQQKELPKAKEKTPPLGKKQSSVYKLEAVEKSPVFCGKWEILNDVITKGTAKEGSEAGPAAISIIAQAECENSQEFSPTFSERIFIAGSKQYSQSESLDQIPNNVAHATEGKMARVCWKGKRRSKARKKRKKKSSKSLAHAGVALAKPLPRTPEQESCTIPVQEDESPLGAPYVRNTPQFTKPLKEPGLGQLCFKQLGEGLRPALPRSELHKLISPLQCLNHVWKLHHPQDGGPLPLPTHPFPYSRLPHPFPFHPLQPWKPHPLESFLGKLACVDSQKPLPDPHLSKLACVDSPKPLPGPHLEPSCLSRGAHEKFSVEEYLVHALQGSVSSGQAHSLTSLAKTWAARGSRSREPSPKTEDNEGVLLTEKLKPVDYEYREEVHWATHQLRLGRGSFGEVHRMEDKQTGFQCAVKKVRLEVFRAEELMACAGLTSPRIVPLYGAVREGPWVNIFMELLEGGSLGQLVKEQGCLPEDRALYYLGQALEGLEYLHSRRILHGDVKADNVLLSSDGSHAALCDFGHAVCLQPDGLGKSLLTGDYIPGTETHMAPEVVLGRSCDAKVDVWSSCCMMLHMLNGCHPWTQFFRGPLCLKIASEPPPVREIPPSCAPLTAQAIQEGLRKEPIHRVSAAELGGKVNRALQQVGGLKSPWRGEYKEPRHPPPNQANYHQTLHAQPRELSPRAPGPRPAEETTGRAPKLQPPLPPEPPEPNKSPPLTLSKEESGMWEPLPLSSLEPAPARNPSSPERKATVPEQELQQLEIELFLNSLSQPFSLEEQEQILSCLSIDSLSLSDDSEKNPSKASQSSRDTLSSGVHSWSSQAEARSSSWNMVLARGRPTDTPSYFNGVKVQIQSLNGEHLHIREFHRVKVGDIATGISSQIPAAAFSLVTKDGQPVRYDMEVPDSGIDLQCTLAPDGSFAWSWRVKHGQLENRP

SMILES: Cc1cc(C#C[C@]2(O)CCN(C)C2=O)cc(-n2nc(C(N)=O)c3cccnc32)c1 [Compound 152, 1-[3-[2-[(3R)-3-hydroxy-1-methyl-2-oxo-pyrrolidin-3-yl]ethynyl]-5-methyl-phenyl] pyrazolo[3,4-b]pyridine-3-carboxamide]
- Ki [1]: 0.87 nM
- IC50 [2]: 45.8 nM
- IC50 [3]: 20000 nM

SMILES: CN1CC[C@@](O)(C#Cc2cccc(-n3nc(C(N)=O)c4c3COCC4)c2)C1=O [Compound 69, 1-[3-[2-[(3R)-3-hydroxy-1-methyl-2-oxo-pyrrolidin-3-yl]ethynyl]phenyl]-5,7-dihy-dro-4H-pyrano[3,4-c]pyrazole-3-carboxamide]
- Ki [1]: 3.98 nM
- IC50 [2]: 945 nM
- IC50 [3]: 20000 nM

SMILES: Cc1cc2c(cn1)c(C(N)=O)nn2-c1cccc(C#C[C@]2(O)CCN(C)C2=O)c1 [Compound 131, 1-[3-[2-[(3R)-3-hydroxy-1-methyl-2-oxo-pyrrolidin-3-yl]ethynyl]phenyl]-6-methyl-pyrazolo[4,3-c]pyridine-3-carboxamide]
- Ki [1]: 0.31 nM
- IC50 [2]: 87 nM
- IC50 [3]: 20000 nM

SMILES: COc1ccc2c(c1)c(C(N)=O)nn2-c1cc(C#C[C@]2(O)CCN(C)C2=O)ccn1 [Compound 65, 1-[4-[2-[(3R)-3-hydroxy-1-methyl-2-oxo-pyrrolidin-3-yl]ethynyl]-2-pyridyl]-5-meth-oxy-indazole-3-carboxamide]
- Ki [1]: 0.05 nM
- IC50 [2]: 14 nM
- IC50 [3]: 2000 nM

SMILES: CN1CC[C@@](O)(C#Cc2cccc(-n3nc(C(N)=O)c4cc(C#N)ccc43)c2)C1=O [Compound 42, 5-cyano-1-[3-[2-[(3R)-3-hy-droxy-1-methyl-2-oxo-pyrroli-din-3-yl]ethynyl]phenyl] indazole-3-carboxamide]
- Ki [1]: 0.64 nM
- IC50 [2]: 392 nM
- IC50 [3]: 20000 nM

SMILES: COc1cc(C#C[C@]2(O)CCN(C)C2=O)cc(-n2nc(C(N)=O)c3cccnc32)c1 [Compound 73, 1-[3-[2-[(3R)-3-hydroxy-1-methyl-2-oxo-pyrrolidin-3-yl]ethynyl]-5-methoxy-phe-nyl]pyrazolo[3,4-b]pyridine-3-carboxamide]
- Ki [1]: 1.05 nM
- IC50 [2]: 119 nM
- IC50 [3]: 20000 nM

SMILES: CN1CC[C@@](O)(C#Cc2cccc(-c3nc(C(N)=O)n4ccc(Cl)cc34)c2)C1=O [Compound 94, 7-chloro-1-[3-[2-[(3R)-3-hy-droxy-1-methyl-2-oxo-pyrroli-din-3-yl]ethynyl]phenyl] imidazo[1,5-a]pyridine-3-carboxamide]
- Ki [1]: 0.05 nM
- IC50 [2]: 7.26 nM
- IC50 [3]: 6320 nM

SMILES: C[C@@H](O)c1ccc2c(c1)c(C(N)=O)nn2-c1cccc(C#C[C@]2(O)CCN(C)C2=O)c1 [Compound 43, 5-[(1R)-1-hydroxyethyl]-1-[3-[2-[(3R)-3-hydroxy-1-meth-yl-2-oxo-pyrrolidin-3-yl]ethynyl]phenyl]indazole-3-carboxamide]
- Ki [1]: 1.6 nM
- IC50 [2]: 921 nM
- IC50 [3]: 20000 nM
